Consider seven compounds from PubChem BioAssay AID1918991 (Molecular Pharmacology Branch, DTP, NCI, 2023).

This experiment concerns 186277-243-T-J2-PDC complex spheroid growth. The experiment in a line: Anticancer human tumor 186277-243-T-J2-PDC patient-derived colon adenocarcinoma cell line growth inhibition [AhR]. Particulars: for viability, T/C: stronger effect = lower value. The source says:
Multicellular complex tumor spheroid response to aryl hydrocarbon receptor antagonists in combination with a variety of drugs and investigational agents in selected tumor cell lines
The current study was undertaken to assess response to aryl hydrocarbon receptor antagonists in combination with standard-of-care drugs and investigational agents in solid tumor complex spheroid models. Complex spheroids include a stromal component modeled by human endothelial cells (HUVEC) and fibroblasts modeled by human mesenchymal stem cells (MSCs). The concentration ranges selected for each drug and investigational agent were based upon clinically achievable concentrations if the clinical Cmax of the agent was known.
Compounds. The drugs and investigational agents: BAY 2416964 (NSC825713), GNF351 (NSC835774), CH-223191 (NSC835775), CPI-455 (NSC825282), aza-TdCyd (NSC777586), decitabine (NSC127716), belinostat (NSC758774), entinostat (NSC756642), pevonedistat (NSC761192), tazemetostat (NSC777109), talazoparib (NSC765396), olaparib (NSC753686), selinexor (NSC780203), nedisertib (M3814, NSC802822), bortezomib (NSC756655), venetoclax (NSC766270), doxorubicin (NSC123127), elimusertib (BAY189344, NSC800525), ceralasertib (AZD6738, NSC777638), TAK-243 (NSC785004), alisertib (NSC759677), etoposide (NSC141540), topotecan (NSC609699), eribulin (NSC707389), gemcitabine (NSC613327), carboplatin (NSC241240), cisplatin (NSC119875), and SN-38 (NSC673596) were obtained from the National Cancer Institute (NCI) Developmental Therapeutics Program Chemical Repository (32). The FDA-approved anticancer drug set is available from the Developmental Therapeutics Program at https://dtp.cancer.gov/organization/dscb/obtaining/available plates.htm. […] The stock solutions were prepared in dimethyl sulfoxide (DMSO, Sigma-Aldrich, St. Louis, MO, cat. D2650), except for the platinum compounds which were prepared in saline (Quality Biological, Gaithersburg, MD, cat. 114-055-101), at 800-fold the tested concentration and stored at -70 degrees C prior to their use. All drugs and investigational agents were tested over a range starting from a high concentration at or near the clinical Cmax and decreasing in half-log increments. If the clinical Cmax for an agent had not been determined, the highest concentration tested was 10 microM (Table 1).
Cell Culture. All cells were maintained in an incubator at 37 degrees C and 5% CO2 with 95% humidity. The PDC lines were cultured according to standard operating procedures established by the NCI PDMR (https://pdmr.cancer.gov). Briefly, all PDCs were thawed and cultured in Matrigel-coated flasks prepared with a working solution of 1X Ham's F-12 nutrient mix, without supplementation (Invitrogen, Waltham, MA, cat. 11765054), 100 U/mL penicillin-streptomycin (Invitrogen, cat. 15140122), and 2.5% Matrigel (Corning Inc., Corning, NY, cat. 354248) for the first three passages. All PDCs were cultured in complete DMEM/F-12 media containing advanced DMEM/F-12 (Invitrogen, cat. 12634028), 4.9% defined fetal bovine serum, heat inactivated (HyClone Laboratories Inc., Logan, UT, cat. SH30070.03HI), 389 ng/mL hydrocortisone (Sigma-Aldrich, cat. H4001), 9.7 ng/mL human EGF recombinant protein (Invitrogen, cat. PHG0313), 23.4 microg/mL adenine (Sigma-Aldrich, cat. A2786), 97.3 U/mL penicillin-streptomycin (Invitrogen, cat. 15140122), 1.9 mM L-glutamine (Invitrogen, cat. 25030081), and 9.7 microM Y-27632 dihydrochloride (Tocris Bioscience, Bristol, United Kingdom, cat. 1254). The PDCs were cultured in complete DMEM/F12 media without 10 microM Y-27632 dihydrochloride for at least two passages prior to the screen. The established cell lines NCI-H1341 and […] were cultured in DMEM/F-12, HEPES (Invitrogen, cat. 11330032), 5% defined fetal bovine serum (HyClone Laboratories Inc., cat. SH30070.03), ITS premix universal culture supplement [insulin (5 microg/mL), transferrin (5 microg/mL), and selenious acid (5 ng/mL)] […]

Where [1] appears, read: curve of first compound, second compound 0.1 µM.
The mark [2] stands for this setting: curve of first compound, second compound 0.316 µM.
Setting [3] is: curve of first compound, second compound 1 µM.
Where [4] appears, read: curve of first compound, second compound 3.16 µM.
[5] abbreviates: curve of first compound, second compound 10 µM.
Where [6] appears, read: second compound 0.1 µM, first compound 0.0316 µM.
[7] abbreviates: second compound 0.1 µM, first compound 0.1 µM.
Where [8] appears, read: second compound 0.1 µM, first compound 0.316 µM.
Setting [9] is: second compound 0.1 µM, first compound 1 µM.
[10] abbreviates: second compound 0.316 µM, first compound 0.0316 µM.
[11] abbreviates: second compound 0.316 µM, first compound 0.1 µM.
Setting [12] is: second compound 0.316 µM, first compound 0.316 µM.
Setting [13] is: second compound 0.316 µM, first compound 1 µM.
Where [14] appears, read: second compound 1 µM, first compound 0.0316 µM.
The mark [15] stands for this setting: second compound 1 µM, first compound 0.1 µM.
[16] abbreviates: second compound 1 µM, first compound 0.316 µM.
The mark [17] stands for this setting: second compound 1 µM, first compound 1 µM.
Where [18] appears, read: second compound 3.16 µM, first compound 0.0316 µM.
The mark [19] stands for this setting: second compound 3.16 µM, first compound 0.1 µM.
[20] abbreviates: second compound 3.16 µM, first compound 0.316 µM.
Setting [21] is: second compound 3.16 µM, first compound 1 µM.
Setting [22] is: second compound 10 µM, first compound 0.0316 µM.
The mark [23] stands for this setting: second compound 10 µM, first compound 0.1 µM.
Setting [24] is: second compound 10 µM, first compound 0.316 µM.
The mark [25] stands for this setting: second compound 10 µM, first compound 1 µM.

Several values for one entry are separate records, joined by “and”; a condition that tells them apart may be missing. Equal values may be shown once.
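Also: spheroids exposed to compounds for seven days before the viability read.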
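For viability, T/C in this document: luminescent signal used as a stand-in for viable cell amount; 100% = DMSO vehicle control wells.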

The viability, T/C is the result in the treated group divided by that in the control group, in per cent. One may read the IC50 as the concentration needed to halve the response being measured. On to `CC(C)c1c(-c2ccccc2)nc2c(C#N)c[nH]n2c1=O`, for which the viability, T/C is 103% and 105% and 93.4% (compound 0.0316 µM); 88.8% and 101% and 94.2% (compound 0.1 µM); 107% and 95.9% and 94.8% (compound 0.316 µM); 103% and 113% and 97.7% (compound 1 µM); 96.4% and 107% and 96.9% (compound 3.16 µM); 92% and 105% and 91.7% (compound 10 µM). Moreover, the IC50 (curve of compound) was greater than 10000 nM.
Take `CC(CO)NC(=O)c1cc(-c2ccc(Cl)cc2)nn(-c2cnn(C)c2)c1=O` (configuration not stated): the viability, T/C reads like this: (compound 1 µM) 98.3% [middle of 21 runs]; (compound 10 µM) 85.9% [middle of 19 runs]. For the setting “compound alone, run of 07/12/2022”, the half-inhibitory concentration (IC50) is greater than 10000 nM.
As to `COc1ccc([C@@H](O)c2cc(-c3ncnc4cc(N5CCOCC5)ccc34)c(F)cc2Cl)nn1`, the viability, T/C was 103% and 94.6% and 86.8% (compound 0.0316 µM); 101% and 91.5% and 90.4% (compound 0.1 µM); 115% and 102% and 95% (compound 0.316 µM); 107% and 95.6% and 69.3% (compound 1 µM); 108% and 87.9% and 46.4% (compound 3.16 µM); 45.4% and 44.9% and 16.3% (compound 10 µM). Where the note is “curve of compound”, the IC50 is 9190 nM and 8760 nM and 2560 nM.
Regarding `Cc1ccccc1N=Nc1ccc(NC(=O)c2ccnn2C)c(C)c1`, the viability, T/C by setting is: (compound 1 µM) 99.2% [middle of 20 runs]; (compound 3.16 µM) 96% [middle of 20 runs]; (compound 10 µM) 88.8% [middle of 20 runs]. Moreover, the IC50 (compound alone, run of 07/26/2022) was greater than 10000 nM.
Take `Cc1cncc(-c2nc(NCCc3c[nH]c4ccccc34)c3ncn(C(C)C)c3n2)c1`: under “compound 0.316 µM”, the viability, T/C is 97.7% [middle of 20 runs].
On to `COc1cccc2c1C(=O)c1c(O)c3c(c(O)c1C2=O)CC(O)(C(=O)CO)CC3OC1CC(N)C(O)C(C)O1` (configuration not stated) + CC(CO)NC(=O)c1cc(-c2ccc(Cl)cc2)nn(-c2cnn(C)c2)c1=O, for which the half-inhibitory concentration (IC50) was less than 31.6 nM under setting [1]; less than 31.6 nM under setting [2]; less than 31.6 nM under setting [3]; less than 31.6 nM under setting [4]; less than 31.6 nM under setting [5]. The viability, T/C is 39.3% under setting [6]; 28.8% under setting [7]; 7.36% under setting [8]; 0.1% under setting [9]; 0.08% (second compound 0.1 µM, first compound 3.16 µM); 0.32% (second compound 0.1 µM, first compound 10 µM). Besides, the viability, T/C reads like this: under setting [10], 38.3%; under setting [11], 27.1%; under setting [12], 7.61%; under setting [13], 0.08%; (second compound 0.316 µM, first compound 3.16 µM) 0.06%; (second compound 0.316 µM, first compound 10 µM) 0.6%. Besides, the viability, T/C by setting is: under setting [14], 37.9%; under setting [15], 29%; under setting [16], 8.06%; under setting [17], 0.09%; (second compound 1 µM, first compound 3.16 µM) 0.37%; (second compound 1 µM, first compound 10 µM) 0.22%. Besides, the viability, T/C under setting [18] was 33.9%; the viability, T/C under setting [19] is 27.5%; the viability, T/C under setting [20] is 7.26%; the viability, T/C under setting [21] is 0.08%; the viability, T/C (second compound 3.16 µM, first compound 3.16 µM) is 0.09%; the viability, T/C (second compound 3.16 µM, first compound 10 µM) was 0.64%. The viability, T/C was 28.2% under setting [22]; 24.3% under setting [23]; 4.49% under setting [24]; 0.2% under setting [25]; 0.17% (second compound 10 µM, first compound 3.16 µM); 0.32% (second compound 10 µM, first compound 10 µM).
As to `Nc1ncn(C2CC(O)C(CO)O2)c(=O)n1` (configuration not stated) + CC(CO)NC(=O)c1cc(-c2ccc(Cl)cc2)nn(-c2cnn(C)c2)c1=O, the 50% inhibitory concentration (IC50) runs as follows: under setting [1], greater than 1000 nM; under setting [2], greater than 1000 nM; under setting [3], greater than 1000 nM; under setting [4], greater than 1000 nM; under setting [5], greater than 1000 nM. Further, the viability, T/C is, setting by setting: (second compound 0.1 µM, first compound 0.00316 µM) 110%; (second compound 0.1 µM, first compound 0.01 µM) 103%; under setting [6], 89.3%; under setting [7], 85.1%; under setting [8], 64.5%; under setting [9], 52.1%. Besides, the viability, T/C was 92% (second compound 0.316 µM, first compound 0.00316 µM); 82.3% (second compound 0.316 µM, first compound 0.01 µM); 85.8% under setting [10]; 84.9% under setting [11]; 63.6% under setting [12]; 52.8% under setting [13]. Further, the viability, T/C is 84.6% (second compound 1 µM, first compound 0.00316 µM); 97.6% (second compound 1 µM, first compound 0.01 µM); 96.1% under setting [14]; 80.9% under setting [15]; 66.2% under setting [16]; 55.2% under setting [17]. In addition, the viability, T/C runs as follows: (second compound 3.16 µM, first compound 0.00316 µM) 91.5%; (second compound 3.16 µM, first compound 0.01 µM) 95.1%; under setting [18], 94.3%; under setting [19], 82.5%; under setting [20], 66.8%; under setting [21], 59.4%. The viability, T/C is 90.3% (second compound 10 µM, first compound 0.00316 µM); 81.2% (second compound 10 µM, first compound 0.01 µM); 90.9% under setting [22]; 79% under setting [23]; 63.1% under setting [24]; 51.7% under setting [25].
